Measurements reported in patent US8940768B2, “Antifungal triazole derivatives” (Daewoong Pharmaceutical Co., Ltd., priority 2010, dated 2015).

System: Candida albicans
Assay: in vitro antifungal activity (MIC80), Candida albicans
Assay type: cell-based
Settings: 80% growth inhibition vs negative control, RPMI 1640, read 24 hrs after application, Table 2, read-out: Antifungal Activity (MIC80) Candida albicans
Procedure: The compounds of the present invention were evaluated for inhibitory activity against yeast molds including Candida albicans, Candida glabrata, Candida krusei, Candida tropicalis, Candida parapsilosis, and Cryptococcus neoformans, and filamentous fungi including Aspergillus fumigatus, Trichophyton mentagrophytes (obtained from KCTC (Korean Collection for Type Cultures), and Trichophyton rubrum (obtained from KCCM (Korean Culture Center of Microorganisms). All the strains, but Trichophyton mentagrophytes and Trichophyton rubrum, were purchased from the ATCC (American Type Culture Collection).
Of the strains used in this test, Candida albicans, Candida glabrata, Candida krusei, Candida tropicalis, Candida parapsilosis, Trichophyton mentagrophytes and Trichophyton rubrum were inoculated into sabouraud dextrose agars (Difco, BD-0109), Cryptococcus neoformans into a yeast mold agar (YM agar, Difco, 271210), and Aspergillus fumigatus into a malt extract agar (Difco, 211220), before incubation at 35° C. for two to ten days.
From the agars on which the yeast molds were grown, single colonies were picked up, and each was sufficiently suspended in 5 mL of already prepared, 0.85% sterile saline. After correction of the absorbance to 0.108 at 530 nm, each of the suspensions was diluted to a ratio of 1:50 in an RPMI (Roswell park memorial institute) 1640 medium and then to a ratio of 1:20 to prepare an inoculum having a cell density of from 1.0×10^3 to 5.0×10^3CFU/mL. The cell density was adjusted into […]˜5.0×10^4 CFU/mL for Aspergillus fumigates and 0.4×10^4˜5.0×10^4 CFU/mL for both Trichophyton mentagrophytes and Trichophyton rubrum.
The antifungal agent samples were prepared by diluting the active compounds in an RPMI 1640 medium to a serial density of from 0.0156 to 32 μg/mL. In this context, dimethylsulfoxide (DMSO) was used as an excipient at a final concentration of 1% (v/v). The serial dilutions were aliquoted at a volume of 0.1 mL and applied to 0.1 mL of the aliquots of each inoculum, followed by incubation.
With the naked eyes, an observation was made of all of the yeast molds, but Cryptococcus neoformans 24 hrs after the application, Cryptococcus neoformans and Aspergillus fumigatus 48 hrs after the application, and Trichophyton mentagrophytes and Trichophyton rubrum five days after the application to examine whether the fungi grew or not. In addition, Alamarblue™ as used to determine the concentrations of the compounds of the present invention at which the growth of the microorganisms was 80% inhibited compared to that of the negative control. All experiments were performed in duplicate for each of the test concentration groups.

Structure (SMILES)	MIC80
C[C@@H](OC1CCN(c2ncccn2)CC1)[C@](O)(Cn1cncn1)c1ccc(F)cc1F [Example 89, (2R,3R)-2-(2,4-difluorophenyl)-3-((1-(pyrimidin-2-yl)piperidin-4-yl)oxy)-1-(1H-1,2,4-triazol-1-yl)butan-2-ol]	≤ 0.015 µg/mL
C[C@@H](N(C)C1CCN(c2ccccc2)CC1)[C@](O)(Cn1cncn1)c1ccc(F)cc1F [Example 155, (2R,3R)-2-(2,4-difluorophenyl)-3-(methyl(1-phenylpiperidin-4-yl)amino)-1-(1H-1,2,4-triazol-1-yl)butan-2-ol]	≤ 0.015 µg/mL
C[C@@H](OC1CCN(c2ccc(C#N)cc2)CC1)[C@](O)(Cn1cncn1)c1ccc(F)cc1F [Example 105, 4-(4-(((2R,3R)-3-(2,4-difluorophenyl)-3-hydroxy-4-(1H-1,2,4-triazol-1-yl)butan-2-yl)oxy)piperidin-1-yl)benzonitrile]	≤ 0.015 µg/mL
C[C@@H](N(C)C1CCN(c2ccc(Cl)cc2)CC1)[C@](O)(Cn1cncn1)c1ccc(F)cc1F [Example 161, (2R,3R)-3-((1-(4-chlorophenyl)piperidin-4-yl)(methyl)amino)-2-(2,4-difluorophenyl)-1-(1H-1,2,4-triazol-1-yl)butan-2-ol]	≤ 0.015 µg/mL
C[C@@H](N1CCC(Oc2ccccc2F)CC1)[C@](O)(Cn1cncn1)c1ccc(F)cc1F [Example 3, (2R,3R)-2-(2,4-difluorophenyl)-3-(4-(2-fluorophenoxy)piperidin-1-yl)-1-(1H-1,2,4-triazol-1-yl)butan-2-ol]	≤ 0.015 µg/mL
C[C@@H](OC1CCN(c2ccccc2)CC1)[C@](O)(Cn1cncn1)c1ccc(F)cc1F [Example 90, (2R,3R)-2-(2,4-difluorophenyl)-3-((1-phenylpiperidin-4-yl)oxy)-1-(1H-1,2,4-triazol-1-yl)butan-2-ol]	≤ 0.015 µg/mL
C[C@@H](N1CCC(N(C)c2ccc(Cl)cc2)CC1)[C@](O)(Cn1cncn1)c1ccc(F)cc1F [Example 73, (2R,3R)-3-(4-((4-chlorophenyl)(methyl)amino)piperidin-1-yl)-2-(2,4-difluorophenyl)-1-(1H-1,2,4-triazol-1-yl)butan-2-ol]	≤ 0.015 µg/mL
C[C@@H](N1CCC(N(C)c2ccc(F)cc2)CC1)[C@](O)(Cn1cncn1)c1ccc(F)cc1F [Example 70, (2R,3R)-2-(2,4-difluorophenyl)-3-(4-((4-fluorophenyl)(methyl)amino)piperidin-1-yl)-1-(1H-1,2,4-triazol-1-yl)butan-2-ol]	≤ 0.015 µg/mL
C[C@@H](N1CCC(N(C)c2ccccc2)CC1)[C@](O)(Cn1cncn1)c1ccc(F)cc1F [Example 67, (2R,3R)-2-(2,4-difluorophenyl)-3-(4-(methyl(phenyl)amino)piperidin-1-yl)-1-(1H-1,2,4-triazol-1-yl)butan-2-ol]	≤ 0.015 µg/mL
C[C@@H](N1CCC(Oc2ccc(C#N)cc2)CC1)[C@](O)(Cn1cncn1)c1ccc(F)cc1F [Example 16, 4-((1-((2R,3R)-3-(2,4-difluorophenyl)-3-hydroxy-4-(1H-1,2,4-triazol-1-yl)butan-2-yl)piperidin-4-yl)oxy)benzonitrile]	≤ 0.015 µg/mL
C[C@@H](N(C)C1CCN(c2ccc(C#N)cc2)CC1)[C@](O)(Cn1cncn1)c1ccc(F)cc1F [Example 170, 4-(4-(((2R,3R)-3-(2,4-difluorophenyl)-3-hydroxy-4-(1H-1,2,4-triazol-1-yl)butan-2-yl)(methyl)amino)piperidin-1-yl)benzonitrile]	≤ 0.015 µg/mL
C[C@@H](N(C)C1CCN(c2ccc(C(F)(F)F)cc2)CC1)[C@](O)(Cn1cncn1)c1ccc(F)cc1F [Example 167, (2R,3R)-2-(2,4-difluorophenyl)-3-(methyl(1-(4-(trifluoromethyl)phenyl)piperidin-4-yl)amino)-1-(1H-1,2,4-triazol-1-yl)butan-2-ol]	≤ 0.015 µg/mL
C[C@@H](N1CCC(Nc2ccc(C#N)cc2)CC1)[C@](O)(Cn1cncn1)c1ccc(F)cc1F [Example 49, 4-((1-((2R,3R)-3-(2,4-difluorophenyl)-3-hydroxy-4-(1H-1,2,4-triazol-1-yl)butan-2-yl)piperidin-4-yl)amino)benzonitrile]	≤ 0.015 µg/mL

Further lines, results first:

MIC80	Structure (SMILES)
≤ 0.015 µg/mL	C[C@@H](OC1CCN(c2ccc(Cl)cn2)CC1)[C@](O)(Cn1cncn1)c1ccc(F)cc1F [Example 115, (2R,3R)-3-((1-(5-chloropyridin-2-yl)piperidin-4-yl)oxy)-2-(2,4-difluorophenyl)-1-(1H-1,2,4-triazol-1-yl)butan-2-ol]
≤ 0.015 µg/mL	C[C@@H](NC1CCN(c2ccc(Cl)cn2)CC1)[C@](O)(Cn1cncn1)c1ccc(F)cc1F [Example 147, (2R,3R)-3-((1-(5-chloropyridin-2-yl)piperidin-4-yl)amino)-2-(2,4-difluorophenyl)-1-(1H-1,2,4-triazol-1-yl)butan-2-ol]
≤ 0.015 µg/mL	C[C@@H](N1CCC(Nc2ncccn2)CC1)[C@](O)(Cn1cncn1)c1ccc(F)cc1F [Example 62, (2R,3R)-2-(2,4-difluorophenyl)-3-(4-(pyrimidin-2-ylamino)piperidin-1-yl)-1-(1H-1,2,4-triazol-1-yl)butan-2-ol]
≤ 0.015 µg/mL	C[C@@H](NC1CCN(c2ccc(F)cn2)CC1)[C@](O)(Cn1cncn1)c1ccc(F)cc1F [Example 146, (2R,3R)-2-(2,4-difluorophenyl)-3-((1-(5-fluoropyridin-2-yl)piperidin-4-yl)amino)-1-(1H-1,2,4-triazol-1-yl)butan-2-ol]
≤ 0.015 µg/mL	C[C@@H](OC1CCN(c2ccc(Cl)cc2)CC1)[C@](O)(Cn1cncn1)c1ccc(F)cc1F [Example 96, (2R,3R)-3-((1-(4-chlorophenyl)piperidin-4-yl)oxy)-2-(2,4-difluorophenyl)-1-(1H-1,2,4-triazol-1-yl)butan-2-ol]
≤ 0.015 µg/mL	C[C@@H](N1CCC(Nc2ncc(Br)cn2)CC1)[C@](O)(Cn1cncn1)c1ccc(F)cc1F [Example 64, (2R,3R)-3-(4-((5-bromopyrimidin-2-yl)-amino)piperidin-1-yl)-2-(2,4-difluorophenyl)-1-(1H-1,2,4-triazol-1-yl)butan-2-ol]
≤ 0.015 µg/mL	C[C@@H](NC1CCN(c2ccccc2)CC1)[C@](O)(Cn1cncn1)c1ccc(F)cc1F [Example 123, (2R,3R)-2-(2,4-difluorophenyl)-3-((1-phenylpiperidin-4-yl)amino)-1-(1H-1,2,4-triazol-1-yl)butan-2-ol]
≤ 0.015 µg/mL	C[C@@H](OC1CCN(c2ccc(F)cn2)CC1)[C@](O)(Cn1cncn1)c1ccc(F)cc1F [Example 114, (2R,3R)-2-(2,4-difluorophenyl)-3-((1-(5-fluoropyridin-2-yl)piperidin-4-yl)oxy)-1-(1H-1,2,4-triazol-1-yl)butan-2-ol]
≤ 0.015 µg/mL	C[C@@H](NC1CCN(c2ccc(C(F)(F)F)cc2)CC1)[C@](O)(Cn1cncn1)c1ccc(F)cc1F [Example 134, (2R,3R)-2-(2,4-difluorophenyl)-1-(1H-1,2,4-triazol-1-yl)-3-((1-(4-(trifluoromethyl)phenyl)piperidin-4-yl)amino)butan-2-ol]
≤ 0.015 µg/mL	C[C@@H](N1CCC(Oc2ccc(Cl)cn2)CC1)[C@](O)(Cn1cncn1)c1ccc(F)cc1F [Example 26, (2R,3R)-3-(4-((5-chloropyridin-2-yl)oxy)piperidin-1-yl)-2-(2,4-difluorophenyl)-1-(1H-1,2,4-triazol-1-yl)butan-2-ol]
≤ 0.015 µg/mL	C[C@@H](OC1CCN(c2ncc(Br)cn2)CC1)[C@](O)(Cn1cncn1)c1ccc(F)cc1F [Example 120, (2R,3R)-3-((1-(5-bromopyrimidin-2-yl)piperidin-4-yl)oxy)-2-(2,4-difluorophenyl)-1-(1H-1,2,4-triazol-1-yl)butan-2-ol]
≤ 0.015 µg/mL	C[C@@H](N1CCC(Oc2ncc(F)cn2)CC1)[C@](O)(Cn1cncn1)c1ccc(F)cc1F [Example 30, (2R,3R)-2-(2,4-difluorophenyl)-3-(4-((5-fluoropyrimidin-2-yl)oxy)piperidin-1-yl)-1-(1H-1,2,4-triazol-1-yl)butan-2-ol]
≤ 0.015 µg/mL	C[C@@H](OC1CCN(c2ncc(F)cn2)CC1)[C@](O)(Cn1cncn1)c1ccc(F)cc1F [Example 118, (2R,3R)-2-(2,4-difluorophenyl)-3-((1-(5-fluoropyrimidin-2-yl)piperidin-4-yl)oxy)-1-(1H-1,2,4-triazol-1-yl)butan-2-ol]
≤ 0.015 µg/mL	C[C@@H](N(C)C1CCN(c2ccc(F)cc2)CC1)[C@](O)(Cn1cncn1)c1ccc(F)cc1F [Example 158, (2R,3R)-2-(2,4-difluorophenyl)-3-((1-(4-fluorophenyl)piperidin-4-yl)(methyl)amino)-1-(1H-1,2,4-triazol-1-yl)butan-2-ol]
